Numbered stars: 1 amine (or outer) side, 2 acyl side, 3 side chain; on linkers, the order of the positions; unused ones are H or OH. Bridge positions count the residues as written; N and C are the ends. Side chains are listed from the residue outwards. Peptide text beside a SMILES is read from it. * marks the point of attachment. C20 diacid = O=C(O)CCCCCCCCCCCCCCCCCCC(=O)*; γGlu = O=C(O)[C@H](CCC(=O)[*:2])N[*:1]
Target: T1, human amylin 3(a) receptor (human calcitonin receptor + RAMP-3) in BHK570 cells (Homo sapiens, UniProt O60896+P30988)
T1 construct: expressed in transfected cells
Test: ASSAY (II)a functional assay, human amylin receptor (CRE luciferase)
Assay type: cell-based
How it was run: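 Read-out: CRE-driven luciferase luminescence, single photon counting, after 30 min at room temperature with LucLite. BHK cells expressed calcitonin receptor alone or with RAMP-3 (amylin 3(a)). Cells were stimulated 3 h at 37° C in DMEM, 10% FBS, 10 mM Hepes, pH 7.4.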

[1] = hCTR funct. EC50 divided by hAmylin-R funct. EC50
[2] = hCTR funct. EC50 over hAmylin-R funct. EC50
[3] = human functional selectivity: hCTR funct. EC50 / hAmylin-R funct. EC50

T1 sequence (O60896 24-148): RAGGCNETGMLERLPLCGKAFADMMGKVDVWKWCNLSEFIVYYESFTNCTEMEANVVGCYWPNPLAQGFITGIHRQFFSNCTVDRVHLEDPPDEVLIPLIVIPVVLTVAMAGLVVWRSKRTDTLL
T1 sequence (P30988 25-474): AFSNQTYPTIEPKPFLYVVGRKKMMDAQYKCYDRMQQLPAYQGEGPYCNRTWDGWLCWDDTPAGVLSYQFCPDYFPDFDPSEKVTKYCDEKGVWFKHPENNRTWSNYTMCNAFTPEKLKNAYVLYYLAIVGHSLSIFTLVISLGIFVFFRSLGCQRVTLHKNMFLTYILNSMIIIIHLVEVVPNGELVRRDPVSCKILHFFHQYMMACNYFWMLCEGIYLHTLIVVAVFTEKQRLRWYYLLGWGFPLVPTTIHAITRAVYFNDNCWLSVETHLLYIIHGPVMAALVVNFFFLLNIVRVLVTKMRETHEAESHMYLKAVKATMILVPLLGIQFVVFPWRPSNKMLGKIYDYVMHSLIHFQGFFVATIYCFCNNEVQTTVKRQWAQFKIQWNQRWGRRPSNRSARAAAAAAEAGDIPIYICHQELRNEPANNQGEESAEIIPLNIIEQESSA

Row | SMILES | Ratio hCT/hAmylin funct. (hCTR funct. EC50 / hAmylin-R funct. EC50) | Ratio hCT/hAmylin funct. [1] | Ratio hCT/hAmylin funct. [2] | Ratio hCT/hAmylin funct. [3]
1 | CC[C@H](C)[C@H](NC(=O)[C@H](C)NC(=O)CNC(=O)[C@H](Cc1ccccc1)NC(=O)[C@H](CC(N)=O)NC(=O)[C@@H]1CCCN1C(=O)[C@H](CO)NC(=O)[C@H](CO)NC(=O)[C@H](Cc1c[nH]cn1)NC(=O)[C@H](CCCNC(=N)N)NC(=O)[C@H](CC(C)C)NC(=O)[C@H](Cc1ccccc1)NC(=O)[C@H](Cc1c[nH]cn1)NC(=O)[C@H](C)NC(=O)[C@H](CC(C)C)NC(=O)[C@H](CCCNC(=N)N)NC(=O)[C@H](CCC(N)=O)NC(=O)[C@@H](NC(=O)[C@H](C)NC(=O)[C@@H]1CSSC[C@H](NC(=O)[C@H](CCCNC(=N)N)NC(=O)CNC(=O)CC[C@H](NC(=O)CCCCCCCCCCCCCCCCCCC(=O)O)C(=O)O)C(=O)N[C@@H](CC(N)=O)C(=O)N[C@@H]([C@@H](C)O)C(=O)N[C@@H](C)C(=O)N[C@@H]([C@@H](C)O)C(=O)N1)[C@@H](C)O)C(=O)N1CCC[C@H]1C(=O)N[C@@H](CO)C(=O)N[C@@H](CO)C(=O)N[C@H](C(=O)N[C@@H](CC(N)=O)C(=O)N[C@H](C(=O)NCC(=O)N1CCC[C@H]1C(=O)N[C@@H](CC(N)=O)C(=O)N[C@H](C(=O)N[C@@H](Cc1ccc(O)cc1)C(N)=O)[C@@H](C)O)C(C)C)[C@@H](C)O [Example 102] ({C20 diacid-γGlu}-GRCNTATCATQRLAHFLRHSSPNFGAIPSSTNVGPNTY-NH2; disulfide 3-8 (inferred)) | 2.9 | 2.9 | 2.9 | 2.9
2 | CC[C@H](C)[C@H](NC(=O)[C@H](C)NC(=O)CNC(=O)[C@H](Cc1ccccc1)NC(=O)[C@H](CC(N)=O)NC(=O)[C@@H]1CCCN1C(=O)[C@H](CO)NC(=O)[C@H](CO)NC(=O)[C@H](Cc1c[nH]cn1)NC(=O)[C@H](CCCNC(=N)N)NC(=O)[C@H](CC(C)C)NC(=O)[C@H](Cc1ccccc1)NC(=O)[C@H](CC(N)=O)NC(=O)[C@H](C)NC(=O)[C@H](CC(C)C)NC(=O)[C@H](CCCNC(=N)N)NC(=O)[C@H](CCC(N)=O)NC(=O)[C@@H](NC(=O)[C@H](C)NC(=O)[C@@H]1CSSC[C@H](NC(=O)[C@@H](N)CCCCNC(=O)CC[C@H](NC(=O)CCCCCCCCCCCCC(=O)O)C(=O)O)C(=O)N[C@@H](CC(N)=O)C(=O)N[C@@H]([C@@H](C)O)C(=O)N[C@@H](C)C(=O)N[C@@H]([C@@H](C)O)C(=O)N1)[C@@H](C)O)C(=O)N1CCC[C@H]1C(=O)N[C@@H](CO)C(=O)N[C@@H](CO)C(=O)N[C@H](C(=O)N[C@@H](CC(N)=O)C(=O)N[C@H](C(=O)NCC(=O)N[C@@H](Cc1c[nH]cn1)C(=O)N[C@@H](CC(N)=O)C(=O)N[C@H](C(=O)N[C@@H](Cc1ccc(O)cc1)C(N)=O)[C@@H](C)O)C(C)C)[C@@H](C)O [Example 112] |  | 38.8 | 38.8 | 38.8
3 | CC[C@H](C)[C@H](NC(=O)[C@H](C)NC(=O)CNC(=O)[C@H](Cc1ccccc1)NC(=O)[C@H](CC(N)=O)NC(=O)[C@@H]1CCCN1C(=O)[C@H](CO)NC(=O)[C@H](CO)NC(=O)[C@H](Cc1c[nH]cn1)NC(=O)[C@H](CCCNC(=N)N)NC(=O)[C@H](CC(C)C)NC(=O)[C@H](Cc1ccccc1)NC(=O)[C@H](CCC(=O)O)NC(=O)[C@H](C)NC(=O)[C@H](CC(C)C)NC(=O)[C@H](CCCNC(=N)N)NC(=O)[C@H](CCC(N)=O)NC(=O)[C@@H](NC(=O)[C@H](C)NC(=O)[C@@H]1CSSC[C@H](NC(=O)[C@H](CCCCN)NC(=O)COCCOCCNC(=O)COCCOCCNC(=O)CC[C@H](NC(=O)CCCCCCCCCCCCCCCCCCC(=O)O)C(=O)O)C(=O)N[C@@H](CC(N)=O)C(=O)N[C@@H]([C@@H](C)O)C(=O)N[C@@H](C)C(=O)N[C@@H]([C@@H](C)O)C(=O)N1)[C@@H](C)O)C(=O)N1CCC[C@H]1C(=O)N[C@@H](CO)C(=O)N[C@@H](CO)C(=O)N[C@H](C(=O)N[C@@H](CC(N)=O)C(=O)N[C@H](C(=O)NCC(=O)N[C@@H](CO)C(=O)N[C@@H](CC(N)=O)C(=O)N[C@H](C(=O)N[C@@H](Cc1ccc(O)cc1)C(N)=O)[C@@H](C)O)C(C)C)[C@@H](C)O [Example 19] |  | 17.4 | 17.4 | 17.4
4 | CC[C@H](C)[C@H](NC(=O)[C@H](C)NC(=O)CNC(=O)[C@H](Cc1ccccc1)NC(=O)[C@H](CC(N)=O)NC(=O)[C@@H]1CCCN1C(=O)[C@H](CO)NC(=O)[C@H](CO)NC(=O)[C@H](Cc1c[nH]cn1)NC(=O)[C@H](CCCNC(=N)N)NC(=O)[C@H](CC(C)C)NC(=O)[C@H](Cc1ccccc1)NC(=O)[C@H](CC(N)=O)NC(=O)[C@H](C)NC(=O)[C@H](CC(C)C)NC(=O)[C@H](CCCNC(=N)N)NC(=O)[C@H](CCC(N)=O)NC(=O)[C@@H](NC(=O)[C@H](C)NC(=O)[C@@H]1CSSC[C@H](NC(=O)[C@H](CCCCN)NC(=O)CC[C@H](NC(=O)CCCCCCCCCCCCCCCCCCC(=O)O)C(=O)O)C(=O)N[C@@H](CC(N)=O)C(=O)N[C@@H]([C@@H](C)O)C(=O)N[C@@H](C)C(=O)N[C@@H]([C@@H](C)O)C(=O)N1)[C@@H](C)O)C(=O)N1CCC[C@H]1C(=O)N[C@@H](CO)C(=O)N[C@@H](CO)C(=O)N[C@H](C(=O)N[C@@H](CC(N)=O)C(=O)N[C@H](C(=O)NCC(=O)N[C@@H](Cc1c[nH]cn1)C(=O)N[C@@H](CC(N)=O)C(=O)N[C@H](C(=O)N[C@@H](Cc1ccc(O)cc1)C(N)=O)[C@@H](C)O)C(C)C)[C@@H](C)O [Example 40] |  | 16.4 | 16.4 | 16.4
5 | CC[C@H](C)[C@H](NC(=O)[C@H](C)NC(=O)CNC(=O)[C@H](Cc1ccccc1)NC(=O)[C@H](CC(N)=O)NC(=O)[C@@H]1CCCN1C(=O)[C@H](CO)NC(=O)[C@H](CO)NC(=O)[C@H](Cc1c[nH]cn1)NC(=O)[C@H](CCCNC(=N)N)NC(=O)[C@H](CC(C)C)NC(=O)[C@H](Cc1ccccc1)NC(=O)[C@H](CC(=O)O)NC(=O)[C@H](C)NC(=O)[C@H](CC(C)C)NC(=O)[C@H](CCCNC(=N)N)NC(=O)[C@H](CCC(N)=O)NC(=O)[C@@H](NC(=O)[C@H](C)NC(=O)[C@@H]1CSSC[C@H](NC(=O)[C@@H](N)CCCCNC(=O)CC[C@H](NC(=O)CC[C@H](NC(=O)CCCCCCCCCCCCCCCCCCC(=O)O)C(=O)O)C(=O)O)C(=O)N[C@@H](CC(N)=O)C(=O)N[C@@H]([C@@H](C)O)C(=O)N[C@@H](C)C(=O)N[C@@H]([C@@H](C)O)C(=O)N1)[C@@H](C)O)C(=O)N1CCC[C@H]1C(=O)N[C@@H](CO)C(=O)N[C@@H](CO)C(=O)N[C@H](C(=O)N[C@@H](CC(N)=O)C(=O)N[C@H](C(=O)NCC(=O)N1CCC[C@H]1C(=O)N[C@@H](CCC(=O)O)C(=O)N[C@H](C(=O)N[C@@H](Cc1ccc(O)cc1)C(N)=O)[C@@H](C)O)C(C)C)[C@@H](C)O [Example 122] (H-K([γGlu-γGlu-C20 diacid])CNTATCATQRLADFLRHSSPNFGAIPSSTNVGPETY-NH2; disulfide 2-7 (inferred); N-terminus assumed) |  | 5.3 | 5.3 | 5.3
6 | CC[C@H](C)[C@H](NC(=O)[C@H](C)NC(=O)CNC(=O)[C@H](Cc1ccccc1)NC(=O)[C@H](CC(N)=O)NC(=O)[C@@H]1CCCN1C(=O)[C@H](CO)NC(=O)[C@H](CO)NC(=O)[C@H](Cc1c[nH]cn1)NC(=O)[C@H](CCCNC(=N)N)NC(=O)[C@H](CC(C)C)NC(=O)[C@H](Cc1ccccc1)NC(=O)[C@H](CC(N)=O)NC(=O)[C@H](C)NC(=O)[C@H](CC(C)C)NC(=O)[C@H](CCCNC(=N)N)NC(=O)[C@H](CCC(N)=O)NC(=O)[C@@H](NC(=O)[C@H](C)NC(=O)[C@@H]1CSSC[C@H](NC(=O)[C@@H](N)CCCCNC(=O)CC[C@H](NC(=O)CCCCCCCCCCCCCCCCCCC(=O)O)C(=O)O)C(=O)N[C@@H](CC(N)=O)C(=O)N[C@@H]([C@@H](C)O)C(=O)N[C@@H](C)C(=O)N[C@@H]([C@@H](C)O)C(=O)N1)[C@@H](C)O)C(=O)N1CCC[C@H]1C(=O)N[C@@H](CO)C(=O)N[C@@H](CO)C(=O)N[C@H](C(=O)N[C@@H](CC(N)=O)C(=O)N[C@H](C(=O)NCC(=O)N[C@@H](CO)C(=O)N[C@@H](Cc1c[nH]cn1)C(=O)N[C@H](C(=O)N[C@@H](Cc1ccc(O)cc1)C(N)=O)[C@@H](C)O)C(C)C)[C@@H](C)O [Example 60] |  | 15.3 | 15.3 | 15.3
7 | CC[C@H](C)[C@H](NC(=O)[C@H](C)NC(=O)CNC(=O)[C@H](Cc1ccccc1)NC(=O)[C@H](CC(N)=O)NC(=O)[C@@H]1CCCN1C(=O)[C@H](CO)NC(=O)[C@H](CO)NC(=O)[C@H](Cc1c[nH]cn1)NC(=O)[C@H](CCCNC(=N)N)NC(=O)[C@H](CC(C)C)NC(=O)[C@H](Cc1ccccc1)NC(=O)[C@H](CCC(=O)O)NC(=O)[C@H](C)NC(=O)[C@H](CC(C)C)NC(=O)[C@H](CCCNC(=N)N)NC(=O)[C@H](CCC(N)=O)NC(=O)[C@@H](NC(=O)[C@H](C)NC(=O)[C@@H]1CSSC[C@H](NC(=O)[C@@H](N)CCCCNC(=O)CC[C@H](NC(=O)CC[C@H](NC(=O)CCCCCCCCCCCCCCCCCCC(=O)O)C(=O)O)C(=O)O)C(=O)N[C@@H](CC(N)=O)C(=O)N[C@@H]([C@@H](C)O)C(=O)N[C@@H](C)C(=O)N[C@@H]([C@@H](C)O)C(=O)N1)[C@@H](C)O)C(=O)N1CCC[C@H]1C(=O)N[C@@H](CO)C(=O)N[C@@H](CO)C(=O)N[C@H](C(=O)N[C@@H](CC(N)=O)C(=O)N[C@H](C(=O)NCC(=O)N1CCC[C@H]1C(=O)N[C@@H](CC(N)=O)C(=O)N[C@H](C(=O)N[C@@H](Cc1ccccc1)C(N)=O)[C@@H](C)O)C(C)C)[C@@H](C)O [Example 127] (H-K([γGlu-γGlu-C20 diacid])CNTATCATQRLAEFLRHSSPNFGAIPSSTNVGPNTF-NH2; disulfide 2-7 (inferred)) |  | 9.9 | 9.9 | 9.9

Source: patent US9023789B2, “Amylin analogs and pharmaceutical compositions thereof” (Novo Nordisk A/S, priority 2012, dated 2015)
